The values that follow are results of earlier work, collected in patent publication US9020605B2, “Electroporation device” (OncoSec Medical Incorporated, priority 2012, dated 2015).

For this series the following is noted: P being the partition coefficient between octanol and water.

Turning to bleomycin, the “log P” value was “very negative”.
